Marks after values point to notes of the source that are not given here.
How the values were obtained:
[1] = tested on: colon cancer SW480 cell line; assay: In vivo antitumor activity, colon cancer SW480 in nude mice (2), dose series; conditions: 3 days, tumor weighed 24 hours after drug discontinuance
[2] = Acute toxic effect of platinum complex on normal mice (LD50); format: in vivo, Kunming mice; conditions: both sexes, Kunming, mouse, in vivo; single intravenous administration in 5% glucose, 14 days observation, Bliss method
Experimental: (§1) Test 1: Acute Toxic Effect of Platinum Complex on Normal Mice
(§2) Embodiment platinum compound was dissolved with 5% glucose solution. […] Mortality and toxicity were observed after administration.

normal mice = assay: as above; format: in vivo, Kunming mice; conditions: single intravenous administration in 5% glucose, 14 days observation, Bliss method
Experimental: as §1, §2

lung cancer H292 = assay: MTT cytotoxicity, lung cancer H292; format: cell-based; conditions: n = 6
Experimental: (§3) The toxic action of Embodiment platinum containing compounds was observed on tumor cells by MTT colorimetric method. Several kinds of tumor cells in exponential growth phase were prepared into single cell suspension, inoculated on 96 pore plat at the density of 4×10^4/hole, cultivated for 24 hours to enable to adhere to wall with 1640 culture medium containing 10% fetal calf serum (complete medium) at 37° C.; the final culture volume was 100 μl. Cell morphology was observed after culture for 24 hours.

colon cancer SW480 = assay: MTT cytotoxicity, colon cancer SW480; format: cell-based; conditions: n = 6
Experimental: as §3

lung cancer Lewis = assay: MTT cytotoxicity, lung cancer Lewis; format: cell-based; conditions: n = 6
Experimental: as §3

[3] = tested on: Pulmonary epithelial cell BEAS-2B; assay: MTT cytotoxicity, pulmonary epithelial cell BEAS-2B; format: cell-based; conditions: n = 6
Experimental: as §3

[4] = tested on: lung cancer H292 cell line; assay: In vivo antitumor activity, lung cancer H292 in nude mice; conditions: H292, 15 mg/kg, every 2 days, 4 times, end 30 days after inoculation
testis cell ST = assay: MTT cytotoxicity, testis cell ST; format: cell-based; conditions: n = 6
Experimental: as §3

gastric cancer MGC803 = assay: MTT cytotoxicity, gastric cancer MGC803; format: cell-based; conditions: n = 6
Experimental: as §3

[5] = tested on: breast cancer MCF-7 tumor cell line; assay: In vivo antitumor activity, breast cancer MCF-7 in nude mice; conditions: MCF-7, 15 mg/kg, every 2 days, 4 times, end 30 days after inoculation
esophagus cancer ECA109 = assay: MTT cytotoxicity, esophagus cancer ECA109; format: cell-based; conditions: n = 6
Experimental: as §3

Compound | solubility (Solubility in water; water) | LD50 at 14 days [2] | LD50 value (normal mice) | IC50 (lung cancer H292) | IC50 (colon cancer SW480) | tumor inhibition rate (%) [4] | IC50 (testis cell ST) | IC50 (gastric cancer MGC803) | tumor inhibition rate (%) [5] | further results
N.N.[Cl][Pt][Cl] [cisplatin, Cis-dichlorodiamminoplatinum, reference compound] | – | – | – | – | – | – | – | – | – | tumor inhibition rate (%) (x ±SD) ([1]; SW480, 3 mg/kg): 62.9 ± 9.01%; tumor inhibition rate (%) (x ±SD) ([1]; SW480, 5 mg/kg): 71.1 ± 10.76%
CNCCC1C(=O)[O][Pt]([NH2])([NH2])[O]C1=O [compound 1, [2-(2-methylamine ethyl)-malonato].[cis-diamino]platinum (II) phosphate] | 221 mg/mL | 722 µmol/kg | – | – | – | – | – | – | – | –
CN(C)CCC1C(=O)[O][Pt]([NH2])([NH2])[O]C1=O [compound 2, [2-(2-dimethylamine ethyl)-malonato].[cis-diamine] platinum (II) acetate] | 198 mg/mL | 791 µmol/kg | – | – | – | – | – | – | – | –
CN(C)CCCC1C(=O)[O][Pt]([NH2])([NH2])[O]C1=O [compound 3, [2-(3-dimethylamine propyl)-malonato].[cis-diamine] platinum (II) phosphate] | 164 mg/mL | 824 µmol/kg | – | – | – | – | – | – | – | –
NCCCC1C(=O)[O][Pt]([NH2])([NH2])[O]C1=O [compound 4, [2-(3-amino propyl)-malonato].[cis-diamine] platinum (II) phosphate] | 176 mg/mL | 802 µmol/kg | – | – | – | – | – | – | – | –
CCN(CC)CCC1C(=O)[O][Pt]([NH2])([NH2])[O]C1=O [compound 5, [2-(2-diethylamine ethyl)-malonato].[cis-diamine] platinum (II) phosphate] | 187 mg/mL | 853 µmol/kg | – | – | – | – | – | – | – | –
CCN(CC)CCCC1C(=O)[O][Pt]([NH2])([NH2])[O]C1=O [compound 6, 2-(3-diethylaminepropyl)-malonic-cis-diamino platinum (II) phosphate] | 165 mg/mL | 749 µmol/kg | – | – | – | – | – | – | – | –
CN(C)CCC1C(=O)[O][Pt]2([NH]C3CCCCC3[NH]2)[O]C1=O (stereo not drawn) [compound 10, [2-(2-dimethylamino ethyl)-malonato].[cis-(1,2-trans-cyclohexanediamine)] platinum (II)] | – | – | 0.593 mmol/kg | 54 µM | 94 µM | 55.3 ± 11.21 ^ % | – | – | – | IC50 (lung cancer Lewis): 143 µM; IC50 [3]: 220 µM
CCN(CC)CCC1C(=O)[O][Pt]2([NH]C3CCCCC3[NH]2)[O]C1=O.O=C(O)CC(O)(CC(=O)O)C(=O)O (stereo not drawn) [compound 13, [2-(2-diethylamine ethyl)-malonato].[cis-(1,2-trans-cyclohexamethylenediamine)]platinum (II) citrate] | – | – | – | 316 µM | 80 µM | 56.1 ± 9.81 ^ % | – | – | – | IC50 (lung cancer Lewis): 36 µM; IC50 [3]: 145 µM
CCN(CC)CCCC1C(=O)[O][Pt]2([NH]C3CCCCC3[NH]2)[O]C1=O.O=P(O)(O)O (stereo not drawn) [compound 14, [2-(3-diethylamine propyl)-malonato].[cis-(1,2-trans-cyclohexamethylenediamine)]platinum (II) phosphate] | – | – | 0.902 mmol/kg | 161 µM | 78 µM | 39.8 ± 8.51 % | 251 µM | 213 µM | – | –
CCCN(CCC)CCC1C(=O)[O][Pt]2([NH]C3CCCCC3[NH]2)[O]C1=O.O=P(O)(O)O (stereo not drawn) [compound 15, [2-(2-di-n-propylamine ethyl)-malonato].[cis-(1,2-trans-cyclohexamethylenediamine)]platinum (II) phosphate] | – | – | 0.469 mmol/kg | 651 µM | 92 µM | 59.0 ± 11.02 ^ % | 12 µM | 149 µM | – | –
CCN(CC)CCCC1C(=O)[O][Pt]2([NH]C3CCC3[NH]2)[O]C1=O.O=C(O)CCC(=O)O (stereo not drawn) [compound 18, 2-(3-diethylaminepropyl)-malonic.cis-(1,2-trans-aminocyclobutyl) platinum (II) succinate] | – | – | – | 224 µM | 281 µM | – | 147 µM | 367 µM | 45.0 ± 9.87% | –
CCN(CC)CCCC1C(=O)[O][Pt]2([NH]C3CC3[NH]2)[O]C1=O.O=P(O)(O)O (stereo not drawn) [compound 19, [2-(3-diethylamine propyl)-malonato].[cis-(1,2-trans-cyclopropyldiamine)]platinum (II) phosphate] | – | – | 0.802 mmol/kg | 62 µM | – | – | 251 µM | 213 µM | 52.6 ± 10.5 % | solubility (Solubility in water; in water): 218 mg/mL; IC50 (esophagus cancer ECA109): 88 µM
CCN(CC)CCC1C(=O)[O][Pt]2([NH]CCC[NH]2)[O]C1=O.O=P(O)(O)O [compound 21, [2-(2-diethylamine ethyl)-malonato].[cis-1,3-propyldiamine] platinum (II) phosphate] | – | – | 0.716 mmol/kg | 205 µM | – | – | 16 µM | 216 µM | 40.3 ± 9.65% | solubility (Solubility in water; in water): 231 mg/mL; IC50 (esophagus cancer ECA109): 174 µM
[NH2][Pt]1([NH2])[O]C(=O)C(CCCN2CCCCC2)C(=O)[O]1 [compound 29, [2-(3-(1-piperidyl)-propyl)-malonato].[cis-diamine]platinum (II) phosphate] | 159 mg/mL | 784 µmol/kg | – | – | – | – | – | – | – | –
[NH2][Pt]1([NH2])[O]C(=O)C(CCCN2CCCC2)C(=O)[O]1 [compound 30, [2-(3-(1-pyrrolidyl)-propyl)-malonato].[cis-diamine] platinum (II) phosphate] | 160 mg/mL | 802 µmol/kg | – | – | – | – | – | – | – | –
[2-(2-amino ethyl)-malonato].[cis-(1,2-trans-cyclohexamethylene diamine)]platinum (II) phosphate [compound 9] | – | – | 0.724 mmol/kg | 63 µM | 71 µM | 79.2 ± 14.99 % | – | – | – | solubility (Solubility in water; in water): 275 mg/mL; IC50 (lung cancer Lewis): 69 µM; IC50 [3]: 57 µM
[2-(2-di-n-propylamine ethyl)-malonato].[cis-1,4-butanediamine] platinum (II) phosphate [compound 22] | – | – | 0.882 mmol/kg | 102 µM | – | – | 302 µM | 556 µM | 40.9 ± 8.97% | IC50 (esophagus cancer ECA109): 215 µM
[2-(2-diethylamine ethyl)-malonato].[cis-1,2-(1,2-dihydroxymethyl)-ethyldiamine]platinum (II) phosphate [compound 23] | – | – | 0.702 mmol/kg | 84 µM | – | – | 147 µM | 367 µM | 44.1 ± 15.12% | IC50 (esophagus cancer ECA109): 212 µM
[2-(2-dimethylamine ethyl)-malonato].[cis-1,2-ethylenediamine] platinum (II) tosilate [compound 20] | – | – | 0.753 mmol/kg | 351 µM | – | – | 12 µM | 149 µM | 54.52 ± 10.25 % | IC50 (esophagus cancer ECA109): 193 µM
[2-(2-dimethylamine ethyl)-malonato].[cis-1,3-(2,2-hydroxymethyl)-propane diamine]platinum (II) phosphate [compound 24] | – | – | 0.509 mmol/kg | 65 µM | – | – | 153 µM | 217 µM | 44.8 ± 11.31% | IC50 (esophagus cancer ECA109): 125 µM
[2-(2-ethylamine ethyl)-malonato].[cis-(1,2-trans-cyclohexamethylene diamine)]platinum (II) phosphate [compound 12] | – | – | 0.609 mmol/kg | 241 µM | 203 µM | 76.3 ± 20.67*^ % | – | – | – | solubility (Solubility in water; in water): 221 mg/mL; IC50 (lung cancer Lewis): 57 µM; IC50 [3]: 15 µM
[2-(3-di-n-propylamine propyl)-malonato].[cis-(1, 2-trans-cyclohexamethylene diamine)]platinum (II) phosphate [compound 16] | – | – | 0.524 mmol/kg | 402 µM | 77 µM | 35.2 ± 6.43 % | 16 µM | 216 µM | – | –
[2-(3-diethylamine propyl)-malonato].[cis-(1,2-trans-diaminocyclopentane)]platinum (II) phosphate [compound 17] | – | – | 0.616 mmol/kg | 249 µM | 205 µM | – | 302 µM | 556 µM | 39.8 ± 12.12% | –
[2-(3-dimethylamine propyl)-malonato].[cis-(1,2-trans-cyclohexamethylene diamine)]platinum (II) phosphate [compound 11] | – | – | 0.509 mmol/kg | 6 µM | 57 µM | 35.9 ± 7.13 % | – | – | – | IC50 (lung cancer Lewis): 213 µM; IC50 [3]: 168 µM

From US9138421B2, “Platinum compounds for treating cell proliferative diseases, preparation method and use thereof” (priority 2011, dated 2015)
